According to patent US20060089371A1, “Phenyl or heteroaryl amino alkane derivatives as ip receptor antagonist” (Bayer HealthCare AG, priority 2002, published 2006):

Assays:
[1] = molecular target: T1, IP receptor (Homo sapiens, UniProt P43119); experiment: IP receptor binding/cAMP in HEL cells ([3H]-iloprost binding, Assay 1; iloprost-induced cAMP production, Assay 2); conditions: compounds of about 40 to 90% purity, read-out: In vitro activity grade (IC50 class)
T1 construct: one million cells in 160 μl aliquot of cell suspension were put in a well of 96 well plate; host or cells: HEL 92.1.7 human erythroleukemia cells (whole cells)
Procedure: [Measurement of the [^3H]-iloprost Binding to HEL Cells] (Assay 1)
A human erythloleukemia cell line, HEL 92.1.7, was purchased from American Type Culture Correction and maintained in RPMI-1640 medium (Gibco BRL) supplemented with 10% fetal calf serum (FCS), 2 mM glutamine, 4.5 g/L glucose, 10 mM Hepes, 1 mM sodium pyruvate, 100 U/ml penicillin, and 100 μg/ml streptomycin in a humidified 5% CO2 atmosphere at 37° C. Cells were collected with centrifugation and washed with binding assay buffer (BAB: 50 mM Tris-HCl, 5 mM MgCl2 (pH 7.5)). Cells were suspended at the density of 6.25×10^6 cells/ml in BAB, and one million cells in 160 μl aliquot of cell suspension were put in a well of 96 well plate (Falcon). Then, 20 μl of compound solution, 100 μM of iloprost (for non-specific binding), or buffer alone (total binding), diluted with 1% DMSO in BAB was added. Finally, another 20 μl containing [^3H]-iloprost (0.02 μCi, 0.5-1 pmol) in BAB was added and incubated at room temperature for 30 min with a gentle shaking. Cell suspension was then transferred to a well of MultiScreen plate with GF/C glass filters (Millipore) to harvest cells. Cells were washed twice with 200 μl of ice-cold BAB and the plate was kept at 55° C. for 30 min to dry filters. The filter in the well was punched out to a counting tube and 2 ml of Ultima Gold XR (Packard) was added. [^3H]-radio activity in the filter was measured by a liquid scintillation counter (Beckman, USA).
[Iloprost-Induced cAMP Production Assay in HEL Cells] (Assay 2)
HEL cells were collected with centrifugation and washed with cAMP assay buffer (CAB: Hank's balanced salt solution, 17 mM Hepes, 0.1% bovine serum albumin, 1 mM IBMX, 0.4% DMSO, and 1 mM L-ascorbic acid sodium salt (pH 7.4)). Cells were suspended at the density of 2.5×10^5 cells/ml in CAB, and twenty thousand cells in 80 μl aliquot of cell suspension were put in a well of 96 well plate (Falcon). Then, 10 μl of compound solution diluted with 1% DMSO in CAB or buffer alone was added. The plate was incubated at 37° C. for 30 min. Then, another 10 μl containing 100 nM iloprost in CAB or buffer alone was added and further incubated at 37° C. for 30 min. cAMP content in the well was measured by a cAMP ELISA kit (Applied Biosystems, USA).
The data corresponds to the compounds as yielded by solid phase synthesis and thus to levels of purity of about 40 to 90%. For practical reasons, the compounds are grouped in three classes of activity as follows: IC50=A<0.1 μM≦B<1 μM≦C

T1 sequence (P43119 whole entry): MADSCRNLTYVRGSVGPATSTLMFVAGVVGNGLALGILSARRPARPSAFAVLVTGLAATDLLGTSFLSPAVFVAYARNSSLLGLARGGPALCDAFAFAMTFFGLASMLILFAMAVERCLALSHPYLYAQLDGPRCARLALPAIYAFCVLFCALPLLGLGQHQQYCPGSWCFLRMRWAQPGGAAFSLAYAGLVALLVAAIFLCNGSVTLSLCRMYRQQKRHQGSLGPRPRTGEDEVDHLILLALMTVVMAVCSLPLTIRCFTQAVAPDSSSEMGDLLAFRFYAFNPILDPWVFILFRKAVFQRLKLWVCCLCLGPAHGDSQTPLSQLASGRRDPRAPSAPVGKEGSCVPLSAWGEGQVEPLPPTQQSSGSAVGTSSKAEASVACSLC

| IC50 [1] [nM] | melting point | Compound |
| --- | --- | --- |
| < 100 | 150 to 153 °C (dec.) | O=C(O)C(Cc1ccc(Cl)cc1)Nc1cc(-c2ccc(OCc3ccccc3)cc2)ncn1 (centres unmarked) [Example 1-22] |
| < 100 | 130 to 133 °C | O=C(O)[C@H](Cc1ccccc1)Nc1cc(-c2ccc(OCc3ccccc3)nc2)ncn1 [Example 25-1, N-{6-[6-(benzyloxy)pyridin-3-yl]pyrimidin-4-yl}phenylalanine] |
| < 100 | 146 to 148 °C (dec.) | O=C(O)C(Cc1ccccc1)Nc1cc(-c2ccc(-c3ccccc3)cc2)ncn1 (centres unmarked) [Example 1-10] |
| < 100 | 145 °C | Nc1ccc(CC(Nc2cc(-c3ccc(OCc4ccccc4)cc3)ncn2)C(=O)O)cc1 (centres unmarked) [Example 1-29] |
| < 100 | 101 to 104 °C | O=C(O)C(Cc1ccccc1)Nc1cc(-c2ccc(OCCCc3ccccc3)cc2)ncn1 (centres unmarked) [Example 2-25] |
| < 100 | 210 °C | CSCCC(Nc1cc(-c2ccc(OCc3ccccc3)cc2)ncn1)C(=O)O (centres unmarked) [Example 1-17] |
| 100 to 1000 | 121 to 123 °C (dec.) | COc1ccccc1-c1ccc(-c2cc(NC(Cc3ccccc3)C(=O)O)ncn2)cc1 (centres unmarked) [Example 11-10] |
| < 100 | 153.8 °C | NCCOc1cccc(C[C@H](Nc2cc(-c3ccc(OCc4ccccc4)cc3)ncn2)C(=O)O)c1 [Example 5-1, 3-(2-Aminoethoxy)-N-{6-[4-(benzyloxy)phenyl]pyrimidin-4-yl}phenylalanine] |
| < 100 | 217 to 220 °C (dec.) | O=C(O)[C@H](Cc1ccccc1)Nc1cc(-c2ccc(/C=C\c3ccccc3)cc2)ncn1 [Example 10-1, N-(6-{4-[(Z)-2-Phenylvinyl]phenyl}pyrimidin-4-yl)phenylalanin] |
| < 100 | 132 to 135 °C | O=C(O)C(COCc1ccccc1)Nc1cc(-c2ccc(OCc3ccccc3)cc2)ncn1 (centres unmarked) [Example 1-33] |
| < 100 | 88 to 93 °C | CCCCC(Nc1cc(-c2ccc(OCc3cc(OC)cc(OC)c3)cc2)ncn1)C(=O)O (centres unmarked) [Example 2-45] |
| 100 to 1000 | 250 to 252 °C (dec.) | O=C(Nc1ccc(-c2cc(N[C@@H](Cc3ccccc3)C(=O)O)ncn2)cc1)c1ccccc1 [Example 14-1, N-{6-[4-(Benzoylamino)phenyl]pyrimidin-4-yl}phenylalanine] |
| < 100 | 214 to 216 °C (dec.) | O=C(O)C(Cc1ccccc1)Nc1cc(-c2ccc(OCCc3ccccc3)cc2)ncn1 (centres unmarked) [Example 2-16] |
| < 100 | 135 to 137 °C | C=CCC(Nc1cc(-c2ccc(OCc3ccccc3)cc2)ncn1)C(=O)O (centres unmarked) [Example 1-28] |
| 100 to 1000 | 150 to 153 °C | O=C(O)C(Cc1ccccc1)Nc1cccc(-c2ccc(OCc3ccccc3)nc2)c1 (centres unmarked) [Example 25-2] |
| < 100 | 107 °C | O=C(O)C(Cc1ccccn1)Nc1cc(-c2ccc(OCc3ccccc3)c(F)c2)ncn1 (centres unmarked) [Example 1-46] |
| < 100 | 214 to 217 °C (dec.) | O=C(O)C(Cc1ccccc1)Nc1cc(-c2ccc(Oc3ccccc3)cc2)ncn1 (centres unmarked) [Example 1-8] |
| < 100 | 156 to 158 °C | O=C(O)C(CC(F)(F)F)Nc1cc(-c2ccc(OCc3ccccc3)cc2)ncn1 (centres unmarked) [Example 1-32] |
| < 100 | 112 to 114 °C (dec.) | COc1cccc(-c2ccc(-c3cc(NC(Cc4ccccc4)C(=O)O)ncn3)cc2)c1 (centres unmarked) [Example 11-4] |
| 100 to 1000 | 173 to 176 °C (dec.) | O=C(O)C(Cc1ccccc1)Nc1cc(-c2ccc(CNCc3ccccc3)cc2)ncn1 (centres unmarked) [Example 19-2] |
| < 100 | 218 to 223 °C | O=C(O)C(Cc1ccccn1)Nc1cc(-c2ccc(OCc3ccccc3)cc2)ncn1 (centres unmarked) [Example 1-31] |
| < 100 | 150 °C | c1ccc(COc2ccc(-c3cc(NC(Cc4ccccc4)c4nnn[nH]4)ncn3)cc2)cc1 (centres unmarked) [Example 27-1, 6-[4-(Benzyloxy)phenyl]-N-[2-phenyl-1-(1H-tetrazol-5-yl)ethyl)pyrimidin-4-amine] |
| < 100 | 186 °C | O=C(O)C(Cc1ccc(F)cc1)Nc1cc(-c2ccc(OCc3ccccc3)cc2)ncn1 (centres unmarked) [Example 1-12] |

| IC50 [1] [nM] | melting point | Compound |
| --- | --- | --- |
| < 100 | 170 to 173 °C | O=C(O)C(Cc1ccccc1)Nc1ncnc(-c2ccc(OCC3CC3)cc2)c1F (centres unmarked) [Example 1-36] |
| > 1000 | < 80 °C | O=C(O)C(Cc1ccccc1)Nc1ncnc(-c2ccc(OCc3ccccc3)cc2)c1[N+](=O)[O-] (centres unmarked) [Example 1-9] |
| < 100 | 194 to 196 °C | O=C(O)C(Cc1ccccc1)Nc1cc(-c2ccc(OCc3ccccc3)cc2)ccn1 (centres unmarked) [Example 3-4] |
| < 100 | 141 to 147 °C | CCCCC(Nc1cc(-c2ccc(OCc3cc(F)cc(F)c3)cc2)ncn1)C(=O)O (centres unmarked) [Example 2-46] |
| < 100 | 220 to 223 °C (dec.) | O=C(O)C(Cc1ccccc1)Nc1cc(-c2ccc(OCc3ccccc3F)cc2)ncn1 (centres unmarked) [Example 2-6] |
| < 100 | 158 to 161 °C | O=C(O)C(Cc1ccccc1)Nc1cccc(-c2ccc(OCc3ccccc3F)cc2)c1 (centres unmarked) [Example 24-4] |
| 100 to 1000 | 175 to 178 °C | O=C(O)C(Cc1ccccc1)Nc1cccc(-c2ccc(OCc3ccc(F)cc3)cc2)c1 (centres unmarked) [Example 24-6] |
| 100 to 1000 | 153 to 155 °C (dec.) | CC(C)(C)OC(=O)Nc1ccc(-c2cc(NC(Cc3ccccc3)C(=O)O)ncn2)cc1 (centres unmarked) [Example 14-2] |
| 100 to 1000 | 116 to 119 °C | O=C(c1ccc(-c2cc(NC(Cc3ccccc3)C(=O)O)ncn2)cc1)C1CCCCC1 (centres unmarked) [Example 17-2] |
| < 100 | 211 °C | O=C(O)C(Cc1ccc([N+](=O)[O-])cc1)Nc1cc(-c2ccc(OCc3ccccc3)cc2)ncn1 (centres unmarked) [Example 1-25] |
| > 1000 | 150 to 152 °C | O=C(O)C(Cc1ccccc1)Nc1cc(-c2cccc(OCc3ccccc3)c2)ncn1 (centres unmarked) [Example 1-43] |
| < 100 | 188 to 192 °C | O=C(O)C(Cc1cccnc1)Nc1cc(-c2ccc(OCc3ccccc3)cc2)ncn1 (centres unmarked) [Example 1-48] |
| 100 to 1000 | 158 °C | CC(Nc1cc(-c2ccc(OCc3ccccc3)cc2)ncn1)C(=O)O (centres unmarked) [Example 1-18] |
| < 100 | 209 to 211 °C | O=C(O)C(Cc1ccccc1)Nc1cc(-c2ccc(OCCn3cccc3)cc2)ncn1 (centres unmarked) [Example 2-9] |
| < 100 | 117 to 120 °C | O=C(O)C(Cc1ccccc1)Nc1cc(-c2ccc(OCc3ccccc3)c(F)c2)ncn1 (centres unmarked) [Example 1-47] |
| < 100 | 130 to 132 °C (dec.) | O=C(O)C(Cc1ccccc1)Nc1cc(-c2ccc(-c3ccc4ccccc4c3)cc2)ncn1 (centres unmarked) [Example 11-5] |
| 100 to 1000 | 120 to 123 °C (dec.) | O=C(O)C(Cc1ccccc1)Nc1cc(-c2ccc(-c3ccc(Oc4ccccc4)cc3)cc2)ncn1 (centres unmarked) [Example 11-11] |
| < 100 | 115 to 117 °C | O=C(c1ccc(F)cc1)c1ccc(-c2cc(NC(Cc3ccccc3)C(=O)O)ncn2)cc1 (centres unmarked) [Example 17-4] |
| < 100 | 85 to 88 °C | O=C(O)C(Cc1ccccc1)Nc1cc(-c2ccc(OCCc3cccnc3)cc2)ncn1 (centres unmarked) [Example 2-23] |
| < 100 | 115 to 118 °C | CCCCC(Nc1cc(-c2ccc(OCc3cccc(OC)c3)cc2)ncn1)C(=O)O (centres unmarked) [Example 2-44] |
| < 100 | 175 to 178 °C | O=C(O)C(Cc1ccccc1)Nc1cc(-c2ccc(OCc3ccccc3)cc2)ncn1 (centres unmarked) [Example 1-7] |
| > 1000 | 89 to 92 °C | O=C(O)C(Cc1ccccc1)Nc1cncc(-c2ccc(OCc3ccccc3)cc2)n1 (centres unmarked) [Example 3-2] |
| < 100 | 120 to 123 °C | O=C(O)C(Cc1ccccc1)Nc1cc(-c2ccc(OCc3ccccn3)cc2)ncn1 (centres unmarked) [Example 2-28] |
